{"source": "patent US20130237557A1", "about": "“TREATMENT” (UCL BUSINESS PLC, priority 2010, published 2013)", "key": {"[1]": {"tested_on": "bile duct ligated (BDL) rat", "assay": "Plasma biochemistry in BDL rats (colorimetry, Cobas Integra)", "type": "in vivo", "from_the_text": "(§1) These experiments utilised an established animal model of cirrhosis, the bile duct ligated (BDL) rat. BDL rats may be generated by methods known in the art. For example, male Sprague-Dawley rats (200-250 g) may be used for this procedure. Following anaesthetisation, a mid-line laparotamy may be performed, the bile duct exposed, triply ligated with 4.0 silk suture, and severed between the second and third ligature. The wound is then closed in layers with absorbable suture, and the animal allowed to recover in a quiet room before being returned to the animal storage facility.\n(§2) 29 bile duct ligated rats and 17 sham operated rats were studied at the end of four weeks. The animals were randomised to receive a placebo (saline) or an alpha 2a antagonist (BRL 44408, Sigma, UK). The dose applied was 10 mgs/Kg by sub cutaneous injection: two doses were delivered 24 hours prior to study.\n(§3) Plasma biochemistry was measured by colorimetry using a Cobas Integra. Alpha 2a adrenergic receptor (ADRA 2a) and Nuclear Factor κ B (NFκB) protein expression were assessed by western blotting. ADRA2a expression was determined by immunohistochemistry.\n(§4) Data are shown as median (range) or mean±standard error (SEM). Two tailed unpaired t-test was used to define difference between the means of normally distributed data of equal variance. For data that was not equally distributed, a Mann-Whitney test was used. Comparison of multiple groups was by analysis of variance (ANOVA) with a Bonferroni correction for multiple comparison."}, "[2]": {"tested_on": "bile duct ligated (BDL) rat", "assay": "Haemodynamics in bile duct ligated (BDL) rats treated with alpha 2a antagonist", "type": "in vivo", "settings": "for mean arterial pressure (MAP): two doses 24 hours prior to study, vs placebo/untreated BDL; for hepatic arterial blood flow: vs BDL treated with saline, Transonic flow probe", "from_the_text": "as §1, §2\n(§5) Mean arterial pressure was measured via a transducer through the left carotid artery. Portal pressure readings were taken by direct puncture of portal vein and transducer. Portal vein and hepatic artery flow measurements were done with a transonic flow probe and meter. All measurements were done in triplicates and recorded in data collection sheets.\nas §4"}, "[3]": {"tested_on": "Nuclear Factor κ B (NFκB)", "assay": "NFκB protein expression in liver tissue of BDL rats by western blotting", "type": "in vivo, rat", "settings": "vs untreated BDL", "from_the_text": "as §1, §2, §3\nThe protein expression was assessed by the western blotting technique. NFkB is an important regulator of cell signalling pathways including apoptosis and inflammation."}, "[4]": {"tested_on": "sham operated rat", "assay": "Haemodynamics in sham operated rats treated with alpha 2a antagonist", "type": "in vivo", "procedure": "as §2, §5, §4"}, "[5]": {"tested_on": "bile duct ligated (BDL) rat", "assay": "Brain water content in BDL rats", "type": "in vivo", "settings": "vs untreated BDL", "from_the_text": "as §1, §2\nThe brain water content signifies the amount of brain swelling that occurs as a result of inflammation in the brain."}, "[6]": {"tested_on": "sham operated rat", "assay": "Plasma biochemistry in sham operated rats (colorimetry, Cobas Integra)", "type": "in vivo", "settings": "sham rats treated vs sham operated rats", "procedure": "as §2, §3, §4"}}, "note": "“Also recorded” adds a separate entry of the source.", "data": [{"smiles": "CC1c2ccccc2CN1CC1=NCCN1", "note": "(centres unmarked) [BRL 44408, 2-[(4,5-Dihydro-1H-imidazol-2-yl)methyl]-2,3-dihydro-1-methyl-1H-isoindole]", "values": [{"measurement": "liver specific alanine aminotransferase (ALT)", "setting": "[1]; p=0.5", "value": "non significant increase"}, {"measurement": "plasma ammonia", "setting": "[1]; vs untreated BDL", "value": "trend towards reduction; also recorded: reduced"}, {"measurement": "plasma aspartate aminotransaminase (AST)", "setting": "[1]; vs untreated BDL", "value": "significant reduction; also recorded: reduced"}, {"measurement": "plasma lactate", "setting": "[1]; vs untreated BDL", "value": "significant reduction"}, {"measurement": "plasma lactate", "setting": "[1]; vs untreated BDL, listed as BRL", "value": "significantly reduced"}, {"measurement": "plasma creatinine", "setting": "[1]; vs untreated BDL, marker for renal function", "value": "trend towards reduction; also recorded: improved; also recorded: reduced"}, {"measurement": "mean arterial pressure (MAP)", "setting": "[2]; BDL rats, 10 mgs/Kg sub cutaneous", "value": "significantly improved; also recorded: increased"}, {"measurement": "mean arterial pressure (MAP)", "setting": "[2]; BDL rats, 10 mgs/Kg sub cutaneous, listed as ADRA2a antagonist", "value": "significant increase"}, {"measurement": "portal pressure", "setting": "[2]; BDL rats, 10 mgs/Kg sub cutaneous, two doses, treated group value (placebo 18.0±3.7), p<0.001", "value": "11.4±3.4", "unit": "mmHg"}, {"measurement": "cardiac output", "setting": "[2]; BDL rats, heart rate x stroke volume from echocardiogram, vs untreated BDL", "value": "improved significantly"}, {"measurement": "intra hepatic resistance", "setting": "[2]; BDL rats, post treatment value (untreated 1.1±0.2), p<0.05, portal pressure divided by hepatic blood flow", "value": "0.5±0.1", "unit": "mmHg/ml/min"}, {"measurement": "portal pressure", "setting": "[2]; BDL rats, vs BDL rats treated with saline, change in words", "value": "significantly reduced; also recorded: lowered"}, {"measurement": "hepatic arterial blood flow", "setting": "[2]; BDL rats", "value": "markedly increased"}, {"measurement": "hepatic arterial blood flow", "setting": "[2]; BDL rats, listed as BRL44408", "value": "improved"}, {"measurement": "intra hepatic resistance", "setting": "[2]; BDL rats, vs untreated BDL, change in words", "value": "significantly reduced; also recorded: lowered"}, {"measurement": "portal venous blood flow", "setting": "[2]; treated group vs placebo", "value": "without significant change"}, {"measurement": "NFkB protein expression in the liver tissue", "setting": "[3]", "value": "reduced"}, {"measurement": "mean arterial pressure (MAP)", "setting": "[4]; sham operated rats, 10 mgs/Kg sub cutaneous, treated vs untreated sham", "value": "no difference"}, {"measurement": "hepatic arterial blood flow", "setting": "[4]; sham operated rats, vs sham treated with saline", "value": "improvement"}, {"measurement": "portal pressure", "setting": "[4]; sham rats treated vs saline", "value": "no difference"}, {"measurement": "intra hepatic resistance", "setting": "[4]; sham rats treated vs sham rats", "value": "no difference"}, {"measurement": "brain water content", "setting": "[5]", "value": "significantly decreased; also recorded: reduced"}, {"measurement": "plasma creatinine", "setting": "[6]", "value": "no difference"}]}]}
